Tests used:
[1] = system: T-47D breast cancer cells; assay: MTT cell viability assay, T-47D; type: cell-based; settings: 48 h, mean ± SD
Experimental: The cell lines were purchased from the American Type Culture Collection (ATCC). The cancer cell lines DU-145, PC-3, T-47D, MDA-MB-231, H1299, and A549, and the non-tumorigenic cells (184B5 and BEAS-2B), were maintained in RPMI 1640 medium (Gibco, Alcobendas, Madrid, Spain) supplemented with 10% fetal bovine serum (FBS; Gibco) and 1% antibiotics (10.00 units/mL penicillin and 10.00 mg/mL streptomycin; Gibco). Colon cancer cells HT-29 and HCT-116 were cultured in McCoy’s 5A medium (Gibco) supplemented with 10% fetal bovine serum (FBS; Gibco) and 1% antibiotics (10.00 units/mL penicillin and 10.00 mg/mL streptomycin; Gibco). Cells were maintained in tissue culture flasks at 37 °C and 5% CO2. The culture medium was replaced every three days.
The antiproliferative activity and selectivity in vitro of the Se-NSAID derivatives were determined by the (3-(4,5-dimethylthiazol-2-yl)-2,5-diphenyltetrazolium bromide) (MTT) assay. Compounds were dissolved in DMSO at a concentration of 0.01 M and serial dilutions were prepared. The Se-NSAID derivatives were tested at seven concentrations ranging between 1 and 100 µM in the colon (HT-29 and HCT-116), prostate (DU-145 and PC-3), breast (MDA-MB-231 and T-47D), and lung (H1299 and A549) cancer cell lines. The non-tumorigenic breast (184B5) and lung (BEAS-2B) cell lines were also tested to assess the selectivity of the compounds following the same procedure. A total of 1 × 10^4 cells were seeded per well in 96-well plates and incubated at 5% CO2 and 37 °C for 24 h. Then, cells were treated with either DMSO or increasing concentrations of the corresponding Se-NSAID derivatives for 48 h. A volume of 20 µL of MTT (5 mg/mL) was added to each well 2.5 h before the termination point. At the end of the experiment, the medium was removed, and the resultant formazan crystals formed by mitochondrial reduction of MTT were dissolved in 50 µL of DMSO. Absorbance was measured at 550 nm. IC50, GI50, TGI, and LC50 values were calculated using OriginPro version 8.5.1. software by nonlinear curve fitting. Selectivity indexes (SI) were calculated as the ratio of the IC50 values determined for the nonmalignant and the tumoral cells in the breast (IC50 (184B5)/IC50 (MDA-MB-231) and IC50 (184B5)/IC50 (T-47D)) and lung (IC50 (BEAS-2B)/IC50 (H1299) and IC50 (BEAS-2B)/IC50 (A549)) cell lines. Data were obtained from at least three independent experiments performed in triplicates.

HCT-116 cells = assay: Caspase 3/7 apoptosis assay; type: cell-based; settings: HCT-116, 24 h
Experimental: The capacity of the Se-NSAID derivatives to induce apoptosis was analyzed using both a Caspase 3/7 assay kit and Annexin V & Dead Cell assay kit (EMD Millipore, Darmstadt, Germany). HCT-116 cells were seeded in 6-well plates at a density of 5 × 10^5 cells per well. Cells were treated either with DMSO (control) or with different concentrations of compound 5 and incubated for 24 h. At the end of the treatment, cells were collected and treated with the respective dyes according to the manufacturer’s protocol. For the Caspase 3/7 assay, cells were stained with 5 µL of Muse™ Caspase 3/7 working solution and incubated at 37 °C for 30 min. After incubation, […] of Muse™ Caspase 7-AAD working solution was added and the samples were incubated for another 5 min in the dark at room temperature prior to analysis. For Annexin V assay, cells were stained with 100 µL pf Muse™ Annexin V & Dead Cell Reagent and incubated for 20 min at room temperature in the dark. Samples for both assays were analyzed on a Muse™ Cell Analyzer (Merck Millipore, Darmstadt, Germany) using Muse™ version 1.4. software.

In vivo toxicity study = assay: In vivo toxicity study; set-up: species or system mice; settings: 7.5 mg/Kg IP thrice weekly, 27 days
Experimental: Female mice of 4–5 weeks of age (The Jackson Laboratory, Bar Harbor, ME, USA) were kept on the daily cycle of 12 h light/dark and received food and water ad libitum throughout the studies. All animal procedures were performed following the National Institutes of Health (NIH) Guide for the Care and Use of Laboratory Animals and protocols were approved by the Animal Care and Use Committee of the Penn State College of Medicine.
Mice were treated either with intraperitoneal doses of 7.5 mg/Kg of compound 5 or with DMSO (vehicle) thrice weekly and kept under observation for 27 days. Body weight, behavior, and food and water intake were monitored every alternate day. At the end of the study, animals were sacrificed by euthanizing the animals by CO2 asphyxiation. The blood serum was withdrawn and subjected to the biochemical analysis of creatinine (mg/dL), AST(SGOT) (U/L), ALT(SGPT) (U/L), Alk. Phos (U/L), and BUN (mg/dL).

CC(C)Cc1ccc(C(C)C(=O)[Se][Se]C(=O)C(C)c2ccc(CC(C)C)cc2)cc1 (stereo not drawn) [Compound 5, 2-(4-Isobutylphenyl)propanoic diselenoperoxyanhydride]
LD50 T-47D ([1]; Table S1): 4.2 ± 0.3 µM | IC50 ([1]; Homo sapiens, T47D): 3800 ± 200 nM | GI50 ([1]; Homo sapiens, T47D, Table S1): 1800 ± 400 nM | TGI T-47D ([1]; in vitro TGI concentration, Table S1): 2700 ± 300 nM | Dead cells (HCT-116 cells; Caspase 3/7 assay, 25 μM): ~ 11% | caspase 3/7 activity (HCT-116 cells; 2.5 to 25 µM, result in words): no clear enhancement | blood serum biochemistry (creatinine, AST, ALT, Alk. Phos, BUN) vs vehicle (In vivo toxicity study; female nude mice, endpoint): no significant changes | behavior and food/water uptake (In vivo toxicity study; mice): no changes | body weight during treatment (In vivo toxicity study; mice): no appreciable variations

Reference: PMC10525927, “First Generation of Antioxidant Precursors for Bioisosteric Se-NSAIDs: Design, Synthesis, and In Vitro and In Vivo Anticancer Evaluation” (Antioxidants, 2023)
